The record followed here is patent US7838534B2, “Quinuclidine derivatives as M3 antagonists” (Chiesi Farmaceutici S.p.A., priority 2006, dated 2010).

The series is described as follows: lung retention after intratracheal administration (lung homogenate, plasma). The series is classed as in vivo. Conditions: guinea pig lung; for C48L/C0.5L (amount in the lung 48 hours vs 0.5 hours after administration): intratracheal administration. An excerpt:
MRTL and […]/C0.5L (%) are two meaningful and predictive parameters of the duration of a drug's effect after single dose pulmonary administration.

With `CC(C)[N+]1(C)[C@@H]2CC[C@H]1CC(OC(=O)C(CO)c1ccccc1)C2.[Br-]` (stereo partly drawn) [ipratropium bromide], the “C48L/C0.5L (amount in the lung 48 hours vs 0.5 hours after administration)” value came out at 0.3%.
Consider `C[N+]1(C)[C@@H]2C[C@@H](OC(=O)C(O)(c3cccs3)c3cccs3)C[C@H]1[C@@H]1O[C@@H]12` [tiotropium bromide], for which the “C48L/C0.5L (amount in the lung 48 hours vs 0.5 hours after administration)” value stood at 2.3%. The MRT (lung homogenate, inhaled or intranasal, intratracheal 10 nmol/kg, read-out: MRTL (Mean Residence Time in the Lung)) amounted to 7.1 h.
